Test results: US4767758A, “Pharmaceutical compositions containing thiophene compounds, and new thiophene compounds” (Consiglio Nazionale Delle Ricerche, priority 1984, dated 1988)

Tests used:
[1] = tested on: L 929 cells; experiment: Radiosensitization of cells in hypoxic condition under gamma radiation (Table 1); type: cell-based; details: concentration 1 × 10^-4 M
Method: The biological and pharmacological activity of the compounds under examination was tested on cell cultures and under gamma radiations. […] These aqueous solutions were added to cell cultures containing from 50 to 60 L 929 cells per mm^2; nutrient solution RPM-1-1640 containing 3% calf serum. Contact between the cells and the compound under examination was continued for six hours under nitrogen and under air. Parts of the solutions during the contact with the drug were irradiated in gamma cell with 1000, 2000 and 3000 rad always using a control sample without the drug.

[2] = tested on: male mice; experiment: Acute toxicity test by oral and intravenous route on male mice (Table 4); type: in vivo; details: 14 days
Method: (§1) The acute toxicity test was carried out by oral and intravenous route on male mice, weighing 19-21 g, which were deprived of meal for 16 hrs before treatment. Oral administration was performed by a gastric probe at doses of 500, 750, 1000 and 2000 mg/kg respectively, of the compounds under examination in aqueous solution of Tween (R). The intravenous administrations was performed in the caudal vein at doses of 100 and 200 mg/kg in 0.9% sodium chloride solution. The administered volumes were 1 ml/20 g by oral route and 0.5 ml/20 g by intravenous route.
(§2) After administration the mice were kept under control for 14 days.

[3] = as above; type: in vivo; details: mouse, in vivo; oral, male mice
Method: as §1, §2

[4] = Reactivity with O2 radicals, pulsed electron beams (Table 3); details: potassium formiate solution saturated with O2; 12 MeV pulsed electron beams
Excerpt: (§3) For testing the reactivity with oxygen radicals, solutions of the compounds under examination in very pure water were submitted to irradiation by an electron flow in accordance with the following procedure:
The O2 species was generated by irradiation of a […] solution of potassium formiate satured with O2 with 12 MeV pulsed electron beams.
The concentration of the O2 radical produced is depending from the irradiation dose (which is proportional to the length of the pulse) and was in any case in excess with respect to the concentration of the reacting substance.

[5] = tested on: L 929 cells; experiment: Cytotoxicity on cell cultures (Table 2); details: 5 × 10^-5 M
Method: The biological and pharmacological activity of the compounds under examination was tested on cell cultures and under gamma radiations. Concentrations of 10^-6, 5×10^-6, 10^-5 and 10^-3 M of each compound were used. These aqueous solutions were added to cell cultures containing from 50 to 60 L 929 cells per mm^2; nutrient solution RPM-1-1640 containing 3% calf serum. Contact between the cells and the compound under examination was continued for six hours under nitrogen and under air. Parts of the solutions during the contact with the drug were irradiated in gamma cell with 1000, 2000 and 3000 rad always using a control sample without the drug.

[6] = Reactivity with OH radicals, pulse irradiation (Table 3); details: KCNS 10^-4 M; pulse 50 nsec, dose 18 Gy; λ=500 nm
Excerpt: as §3
The irradiated solution for measurement of reactivity with OH radicals contained KCNS 10^-4 M and increasing concentrations of the compounds under examination. The concentrations were 10^-6 and 6×10^-6for the first five compounds of Table 1, 10^-5 and 10^-4, 10^-3 M for the other eight compounds.
The water used for the tests was neutral and made absolutely pure by deionization and four distillations also in the presence of oxidizing agents (KMnO4).
The irradiation conditions were: pulse 50 nsec, dose 18 Gy.
Absorption was performed at λ=500 nm.

O=C(O)C(C(=O)O)c1csc([N+](=O)[O-])c1 [Compound 12, 5-nitro-3-thiophenemalonic acid]
Radiosensitization Index (R.S.I.) [1]: 1.88 | Death (dead/treated animals) ([2]; intravenous, 100 mg/kg): 0/5 | Death (dead/treated animals) ([2]; intravenous, 200 mg/kg): 0/5 | Death (dead/treated animals) ([2]; oral, 500 mg/kg): 0/5 | Death (dead/treated animals) ([2]; oral, 750 mg/kg): 0/5 | Death (dead/treated animals) ([2]; oral, 1000 mg/kg): 2/5 | Death (dead/treated animals) ([2]; oral, 2000 mg/kg): 5/5 | LD50 at 336 h [3]: 1200 mg/kg | Reactivity with O2 radicals measured as a speed constant (KO2-·) [4]: 10000 M⁻¹ s⁻¹ | Cytotoxicity Index (number of cells) ([5]; culture time 0 hr, control 40): 50 number of cells | Cytotoxicity Index (number of cells) ([5]; culture time 6 hr, control 62): 60 number of cells | Cytotoxicity Index (number of cells) ([5]; culture time 12 hr, control 80): 74 number of cells | Cytotoxicity Index (number of cells) ([5]; culture time 24 hr, control 166): 136 number of cells | Reactivity with OH radicals measured as a speed constant (KOH·) [6]: 7.2e+09 M⁻¹ s⁻¹
